According to patent US10456441B2, “Augmenting the immune response by promoting cell death of immune cells” (The University of Vermont and State Agricultural College, priority 2014, dated 2019):
Where a SMILES comes first, the peptide text is derived from it. The star is where a group is joined. Cbz = O=C(OCc1ccccc1)*; CH2F = FC*

Tests used:
[1] = tested on: CD4 OT-II T cells; assay: OT-II αβ T cell cultures with DC and OVAp; assay type: cell-based, mice; conditions: OVAp + DC treated with zVAD (50 μM)
Experimental: C57BL/6 OT-II mice contain CD4^+ T cells that respond to ovalbumin peptide (OVAp) 323-339 in the context of I-A^b (27). OT-II T cells were cultured with C57BL/6 DC at a 1:1 ratio in the presence of OVAp (10 μg/ml) with or without zVAD (50 μM). Supernatants were collected after 20 h and analyzed for production of IFN-γ and IL-17 by Bio-Plex.

[2] = tested on: BMDC; assay: Cell death of BMDC by TUNEL assay; assay type: cell-based, mice
Experimental: The preparation of bone marrow-derived dendritic cells (BMDC) was done according to the method of Lutz et al. (26) using GM-CSF ([…] PeproTech, Rocky Hill N.J.) or GM-CSF plus IL-4 (10 μg/ml, PeproTech). Cells were used on day 7.
Cell death was examined by terminal deoxynucleotidyl transferase dUTP nick end labeling (TUNEL). Briefly, cells were stained for expression of cell surface molecules, and then fixed with 1% methanol-free formaldehyde followed by 70% ethanol. After washing, the TUNEL reaction was performed by incubating cells in 50 μl of reaction mix containing 10 units of terminal deoxribosyl transferase (TdT), 2.5 mM cobalt chloride in 1× TdT buffer, and 0.2 pmol/μl of FITC-dUTP (Roche, Indianapolis, Ind.) at 37° C. for 1 hour. The cells were washed twice and fixed in 1% methanol-free formaldehyde. Murine thymocytes were included as a positive control for apoptotic cells. Flow cytometry was performed on an LSRII (BD Biosciences, San Jose, Calif.) calibrated with compensation beads (BD Biosciences). Analysis was performed using FlowJo software (Tree Star, Inc., Ashland, Oreg.).

## CC(C)[C@H](NC(=O)OCc1ccccc1)C(=O)N[C@@H](C)C(=O)N[C@@H](CC(=O)O)C(=O)CF [zVAD, N-benzyloxycarbonyl-Val-Ala-Asp-fluoromethyl ketone] (Cbz-Val-Ala-Asp-CH2F)
[1]
  production of IFN-γ by OT-II T cells: considerably augmented
  production of IL-17 by OT-II T cells: considerably augmented
[2]; 50 μM zVAD, BMDC grown in GM-CSF, within 18 hours, dose-dependent
  dead BMDC: ~80%
[2]; GM-CSF+IL-4-cultured BMDC with zVAD, compared to BMDC cultured with only GM-CSF
  cell death of BMDC: greatly reduced cell death
